Test results taken from ChEMBL document CHEMBL4270619, “Mycobacterial siderophore: A review on chemistry and biology of siderophore and its potential as a target for tuberculosis” (Eur J Med Chem, 2018).

Experiments:
[1] = Efflux ratio of apparent permeability from basolateral to apical over apical to basolateral side in human Caco2 cells; type: ADME, cell-based; conditions: caco-2
[2] = Stability in human plasma; type: ADME, cell-free
[3] = Stability in rat plasma; type: ADME, cell-free

| SMILES | Ratio [1] | Stability [2] [%] | Stability [3] [%] |
| --- | --- | --- | --- |
| CC(=O)O[C@H]1[C@@H](F)[C@H](n2cnc3c(N)ncnc32)O[C@@H]1COS(=O)(=O)NC(=O)c1ccccc1O.CCN(CC)CC | 1.5 to 8.5 | – | – |
| CCCCC(=O)O[C@H]1[C@@H](F)[C@H](n2cnc3c(N)ncnc32)O[C@@H]1COS(=O)(=O)NC(=O)c1ccccc1O.CCN(CC)CC | 1.5 to 8.5 | – | – |
| CCCCCCCC(=O)O[C@H]1[C@@H](F)[C@H](n2cnc3c(N)ncnc32)O[C@@H]1COS(=O)(=O)NC(=O)c1ccccc1O.CCN(CC)CC | 1.5 to 8.5 | – | – |
| CC(C)C(=O)O[C@H]1[C@@H](F)[C@H](n2cnc3c(N)ncnc32)O[C@@H]1COS(=O)(=O)NC(=O)c1ccccc1O.CCN(CC)CC | 1.5 to 8.5 | – | – |
| CCC(CC)C(=O)O[C@H]1[C@@H](F)[C@H](n2cnc3c(N)ncnc32)O[C@@H]1COS(=O)(=O)NC(=O)c1ccccc1O.CCN(CC)CC | 1.5 to 8.5 | – | – |
| CCCCCCCCCCCC(=O)O[C@H]1[C@@H](F)[C@H](n2cnc3c(N)ncnc32)O[C@@H]1COS(=O)(=O)NC(=O)c1ccccc1O.CCN(CC)CC | 1.5 to 8.5 | – | – |
| CCCC(=O)O[C@H]1[C@@H](F)[C@H](n2cnc3c(N)ncnc32)O[C@@H]1COS(=O)(=O)NC(=O)c1ccccc1O.CCN(CC)CC | 1.5 to 8.5 | – | – |
| CCN(CC)CC.Nc1ncnc2c1ncn2[C@@H]1O[C@H](COS(=O)(=O)NC(=O)c2ccccc2O)[C@@H](O)[C@H]1O | – | 100 | 100 |
| CCC(=O)O[C@H]1[C@@H](F)[C@H](n2cnc3c(N)ncnc32)O[C@@H]1COS(=O)(=O)NC(=O)c1ccccc1O.CCN(CC)CC | 1.5 to 8.5 | – | – |
